The text below walks through data of PMC12114750 (Pharmaceuticals, 2025).

Like-named read-outs stand apart in the source and are kept apart here. Bounds are passed on as bounds.

In data set [1] the test system is HCT-15 (colorectal adenocarcinoma). The data set is described as follows: cells. As to conditions: for IC50: Homo sapiens, HCT-15, 24 h, MTT. The format is cell-based, human. The procedure: (§1) Breast adenocarcinoma cells (MCF-7; DSMZ: ACC 115), colon adenocarcinoma cells (HTC-15; DSMZ: CCL-225), and prostate cells (DU-145; ATCC: HRB-81) were cultured in RPMI 1640 medium.
(§2) Cells were seeded at an appropriate density to promote optimal growth, and the culture medium was replaced every 48 h. Once cells reached 80–90% confluence, subculture was performed using 0.25% trypsin-EDTA to dissociate the cells, by 2 min and put inside of chamber during 5 min, according to the protocol provided by the biobanks. The cell lines were maintained at 37 °C in a humidified incubator with 5% CO2 and 95% humidity.
(§3) Cells were seeded in 96-well plates (HepG-2: 2.5 ×10^4 cells; HCT-15: 2.5 × 10^4 cells/mL; MCF-7: 2.5 × 10^4 cells/mL; SH-SY5Y: 5.0 × 10^4 cells/mL; FL83B: 5.0 × 10^4 cell/mL; DU-145: 5.0 × 10^4 cell/mL). Cancer cell lines were exposed to compounds (100 μM) for 24 h and vehicle/controls were included to assess potential solvent interference. Cell viability was assessed using MTT assay. Then, the culture medium was removed and 100 μL of MTT (0.5 mg/mL) was added to each cell. Cells were incubated for 1 h in the dark under the same culture condition (37 °C, 5% CO2, 95% humidity). After incubation, the intracellular formazan crystals were solubilized with 100 μL DMSO and, after […], the absorbance was measured at 570 nm using a microplate reader (Synergy H1). […] Results were expressed as a percentage of control untreated cells and the half-maximal inhibitory concentration (IC50) values were determined using nonlinear regression analysis (GraphPad Prism, 8.1, GraphPad Software, San Diego, CA, USA).

In another data set the test system is FL83B hepatocytes. The data set is described as follows: Cytotoxicity (in vitro hepatotoxicity) MTT assay, FL83B. The data set is classed as cell-based. As to conditions: 24 h, normal murine hepatocytes. The procedure:
(§4) Hepatocyte cells (FL83B; ATCC: CLR-2390) were cultured in F-12K medium. Human neuroblastoma (SH-SY5Y; ATCC: CRL-2266) cells were cultivated in DMEM/F12 medium. All media were supplemented with fetal bovine serum (10%) (Biowest, Riverside, MO, USA) and 1% antibiotic/antimycotic solution (Biowest, Nuaill’e, France).
as §2, §3
Background: Tetrazolium dyes change colour on reduction, which living cells bring about.

The test system of data set [2] is DU-145 (prostate adenocarcinoma). The data set is described as follows: Cytotoxicity MTT assay, DU-145. The data set is classed as cell-based, human. As to conditions: for IC50: 24 h, MTT. The procedure: as §1, §2, §3
Data set [3] deals with SH-SY5Y neuroblastoma cell line. The data set is described as follows: Cytotoxicity MTT assay, SH-SY5Y. The format is cell-based, human. As to conditions: 24 h. The procedure: as §4, §2, §3
In data set [4] the test system is MCF-7 (breast adenocarcinoma). As to the kind of experiment: cells. As to conditions: for IC50: Homo sapiens, MCF7, 24 h, MTT. The data set is classed as cell-based. The procedure: as §1, §2, §3
Data set [5] concerns differentiated SH-SY5Y neuroblastoma cells. The data set is described as follows: Neuroprotective capacity on a Parkinson's disease cellular model (6-OHDA, MTT). As to conditions: 6-OHDA 100 μM, 24 h.
Description: Only at these non-toxic concentrations (0.01–10 µM; 24 h) were the compounds subsequently tested for their neuroprotective potential in an in vitro PD damage model using differentiated SH-SY5Y neuroblastoma cells. The cells, previously differentiated to obtain a dopaminergic neuronal phenotype [52], were treated with compounds in the presence of the neurotoxin 6-OHDA (100 µM). The cells’ viability was estimated using the 3-(4,5-dimethylthiazol-2-yl)−2,5-diphenyltetrazolium bromide (MTT) assay.
Cells were differentiated to obtain dopaminergic neuronal phenotype according to [52], with slight modifications. […] At the end of the 8th day, the cytotoxicity assay was performed.
Cell viability on SH-SY5Y cells was evaluated after exposure to the compounds at 10 μM for 24 h. […] The cell viability and neuroprotective effects were assessed by a colorimetric assay based on the reduction of tetrazolium salts MTT (VWR, Solon, OH, USA) to blue formazan products, according to [61]. Saponin (Sigma-Aldrich, Steinheim, Germany) was used as a positive control for inducing cellular death. The results were expressed as a percentage of the control (untreated cells).
The target of data set [6] is T1, Acetylcholinesterase (from Electrophorus electricus) (Electrophorus electricus, UniProt O42275).
T1 construct: purchased Sigma
T1 sequence (O42275 24-633): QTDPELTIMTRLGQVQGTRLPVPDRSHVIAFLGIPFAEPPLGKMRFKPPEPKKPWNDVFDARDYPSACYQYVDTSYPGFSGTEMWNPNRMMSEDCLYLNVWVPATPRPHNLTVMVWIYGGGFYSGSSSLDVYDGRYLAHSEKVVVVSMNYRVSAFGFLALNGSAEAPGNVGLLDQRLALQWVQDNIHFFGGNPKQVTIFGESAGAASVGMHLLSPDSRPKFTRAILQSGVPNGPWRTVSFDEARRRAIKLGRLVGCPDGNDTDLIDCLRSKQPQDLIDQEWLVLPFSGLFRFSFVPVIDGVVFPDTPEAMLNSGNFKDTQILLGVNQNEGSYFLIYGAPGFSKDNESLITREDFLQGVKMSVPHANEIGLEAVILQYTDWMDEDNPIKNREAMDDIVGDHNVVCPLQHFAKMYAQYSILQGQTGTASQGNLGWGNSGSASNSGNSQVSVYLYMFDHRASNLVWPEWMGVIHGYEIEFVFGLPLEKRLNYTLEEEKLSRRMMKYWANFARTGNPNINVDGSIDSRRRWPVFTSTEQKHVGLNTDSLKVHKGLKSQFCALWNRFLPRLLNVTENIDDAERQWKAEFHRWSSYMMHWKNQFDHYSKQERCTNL
As to the kind of experiment: biochemical. As to conditions: read-out: AChE Inhibition (%). The procedure: (§5) The inhibitory effects of the compounds on AChE and BChE were assessed by Elman’s method.
(§6) Acetylcholinesterase (from Electrophorus electricus), Butyrylcholinesterase (from equine serum), 5,5′-dithiobis-(2-nitrobenzoic acid) (DTNB), and acetylthiocholine iodide were purchased from Sigma.
Preparation of 50 mM Tris-HCl buffer solutions: Tris(hydroxymethyl)-aminomethane (606 mg) was dissolved in bidestilled water (100 mL) and adjusted with HCl to a pH of 8.0 ± 0.1. Buffers were freshly prepared and stored in the refrigerator. AChE solution 2.005 U/mL: The enzyme (271 U/mg, 0.037 mg) was dissolved in freshly prepared buffer pH 8.0 (5 mL) containing NaN3 (0.98 mg). BChE solution 2.040 U/mL: The enzyme (7.54 U/mg, 1.353 mg) was dissolved in freshly prepared buffer pH 8.0 (5 mL) containing NaN3 (0.98 mg). DTNB solution 3 mM: DTNB (23.8 mg) was dissolved in freshly prepared buffer pH 8.0 (20 mL) containing NaCl (116.8 mg) and MgCl2 (38.0 mg). […]
BMG Labtech Spectrostar Omega plate reader working in the slow kinetics mode and measuring the absorbance at a distinct wavelength of λ = 412 nm with center scanning mode was used for the enzymatic studies. […] The absorbance data were recorded under a controlled temperature of 30 °C for 30 min at 1 min intervals at l = 412 nm. The relative inhibition was determined as the quotient of the slopes (compound divided by blank) of the linear ranges (10 repetitions). […]

Data set [7] has as its target T2, Butyrylcholinesterase (from equine serum) (Equus caballus, UniProt P81908).
T2 construct: Butyrylcholinesterase (from equine serum); purchased Sigma; host or cells: equine serum
The data set is described as follows: biochemical. The format is biochemical. As to conditions: for Ki: read-out: BChE Ki; for inhibition at 50 µM: read-out: BChE Inhibition (%). The procedure:
as §5, §6
Preparation of 50 mM Tris-HCl buffer solutions: Tris(hydroxymethyl)-aminomethane (606 mg) was dissolved in bidestilled water (100 mL) and adjusted with HCl to a pH of 8.0 ± 0.1. Buffers were freshly prepared and stored in the refrigerator. AChE solution 2.005 U/mL: The enzyme (271 U/mg, 0.037 mg) was dissolved in freshly prepared buffer pH 8.0 (5 mL) containing NaN3 (0.98 mg). BChE solution 2.040 U/mL: The enzyme (7.54 U/mg, 1.353 mg) was dissolved in freshly prepared buffer pH 8.0 (5 mL) containing NaN3 (0.98 mg). DTNB solution 3 mM: DTNB (23.8 mg) was dissolved in freshly prepared buffer pH 8.0 (20 mL) containing NaCl (116.8 mg) and MgCl2 (38.0 mg). ATChI solution 15 mM: ATChI (43.4 mg) was dissolved in bidestilled water (10 mL). All solutions were stored in Eppendorf caps in the refrigerator or in the freezer, if necessary. […] The final concentrations for the enzymatic assay were obtained by diluting the stock solution with bidistilled water.
BMG Labtech Spectrostar Omega plate reader working in the slow kinetics mode and measuring the absorbance at a distinct wavelength of λ = 412 nm with center scanning mode was used for the enzymatic studies. In short, a mixture of a DTNB solution (125 µL, 3 mM in 50 mM Tris-HCl buffer, pH 8), enzyme solution (25 µL, 2 U/mL), and compounds solutions (25 µL, 3 different concentrations and water as a blank) was incubated at 30 °C for 20 min. The substrate (25 µL, [ATChI] = 0.9375 mM, 0.625 mM, […], 0.1875 mM) was added to start the enzymatic reaction. The absorbance data were recorded under a controlled temperature of 30 °C for 30 min at 1 min intervals at l = 412 nm. The relative inhibition was determined as the quotient of the slopes (compound divided by blank) of the linear ranges (10 repetitions). Galantamin was used as control substance. To determine the kinetic constants, standard linearization methods were used after applying an internal standard (Dixon/Cornish–Bowden plots) (triplicates).

T2 sequence (P81908 whole entry): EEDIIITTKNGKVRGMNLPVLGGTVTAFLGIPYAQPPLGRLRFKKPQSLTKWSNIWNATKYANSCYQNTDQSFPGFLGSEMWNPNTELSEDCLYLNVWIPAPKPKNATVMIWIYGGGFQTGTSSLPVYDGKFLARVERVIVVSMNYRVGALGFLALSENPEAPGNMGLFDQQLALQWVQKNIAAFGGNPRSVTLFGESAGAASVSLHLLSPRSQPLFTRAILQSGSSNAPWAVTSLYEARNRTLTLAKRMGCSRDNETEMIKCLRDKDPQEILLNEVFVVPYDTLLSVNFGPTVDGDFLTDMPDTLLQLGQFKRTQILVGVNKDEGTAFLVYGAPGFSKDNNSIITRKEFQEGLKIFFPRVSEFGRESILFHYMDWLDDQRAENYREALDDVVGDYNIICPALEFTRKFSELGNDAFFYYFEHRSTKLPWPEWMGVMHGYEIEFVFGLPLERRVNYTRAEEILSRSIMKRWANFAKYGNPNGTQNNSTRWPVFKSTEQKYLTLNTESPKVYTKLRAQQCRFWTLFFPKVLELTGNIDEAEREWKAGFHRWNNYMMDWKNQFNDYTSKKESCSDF

On to `O=c1[nH]cc(F)c(=O)[nH]1` [5-Fluorouracil, reference compound], for which the half-maximal inhibitory concentration (IC50) (commonly the concentration needed to halve the response being measured) in data set [1] is 156 µM; with FL83B hepatocytes (Mus musculus, FL83B), > 100 µM.
Consider `N.N.[Cl][Pt][Cl]` [Cisplatin, reference compound], for which the values for the half-maximal inhibitory concentration (IC50) (in data set [2]; in data set [3]; in the data set on FL83B hepatocytes) were > 100 µM, 13.9 µM and 25.7 µM, respectively.
For `CC(=O)O[C@@H]1CN(C(C)=O)C(=O)[C@H](OC(C)=O)[C@H]1OCc1ccccc1` [Compound 3, N-acetyl 2,4-di-O-acetyl-3-O-benzyl-D-xylono-1,5-lactam], the half-inhibitory concentration (IC50) in data set [1] was > 100 µM; in data set [4] it was > 100 µM; in data set [2] (Homo sapiens, DU-145), > 100 µM; in data set [3] (Homo sapiens, SH-SY5Y) it was > 100 µM.
As for `NCCc1cc(O)c(O)cc1O` [Compound 6-OHDA, 6-hydroxydopamine], the “reduction of differentiated SH-SY5Y cells' viability” value in data set [5] stood at 40%. For the same molecule, the “viable cells, 6-OHDA alone” value in data set [5] (MTT, % of control) is 61.3 ± 1.4 % of viable cells.
For `CC(=O)O[C@@H]1[C@@H](OCc2ccccc2)[C@@H](CN=[N+]=[N-])O[C@H]1n1cnc2c(Cl)ncnc21` [Compound 7, 9-(2-O-Acetyl-5-azido-3-O-benzyl-5-deoxy-β-D-xylofuranosyl)-6-chloropurine], the IC50 in data set [1] was 72.7 µM; in data set [4] it was > 100 µM; in data set [2] (Homo sapiens, DU-145), > 100 µM; in data set [3] (Homo sapiens, SH-SY5Y), > 100 µM; in the data set on FL83B hepatocytes (Mus musculus, FL83B), 22.7 µM.
As for `CC(=O)O[C@@H]1[C@@H](OCc2ccccc2)[C@@H](CN=[N+]=[N-])O[C@H]1n1cnc2ncnc(Cl)c21` [Compound 8, 7-(2-O-acetyl-5-azido-3-O-benzyl-5-deoxy-β-D-xylofuranosyl)-6-chloropurine], the IC50 was > 100 µM in data set [1]; > 100 µM in data set [4]; > 100 µM in data set [2] (Homo sapiens, DU-145); > 100 µM in data set [3] (Homo sapiens, SH-SY5Y).
As for `CC(=O)O[C@@H]1[C@@H](OCc2ccccc2)[C@@H](CN=[N+]=[N-])O[C@H]1n1ccc(=O)[nH]c1=O` [Compound 9, 1-(2-O-Acetyl-5-azido-3-O-benzyl-5-deoxy-β-D-xylofuranosyl)uracil], the concentration for half-maximal inhibition (IC50) in data set [1] was > 100 µM; in data set [4], > 100 µM; in data set [2] (Homo sapiens, DU-145), > 100 µM; in data set [3] (Homo sapiens, SH-SY5Y), > 100 µM.
As for `CC(=O)OC1C(OCc2ccccc2)C(CNC(=NC(=O)OC(C)(C)C)NC(=O)OC(C)(C)C)OC1n1cnc2c(Cl)ncnc21` [Compound 10, 9-{2-O-acetyl-3-O-benzyl-5-deoxy-5-[N′,N′′-bis(tert-butoxycarbonyl)]guanidino-β-D-xylofuranosyl}-6-chloropurine], the inhibition (as a rule, how much of the control response was suppressed) at 50 µM came out at 39.1 ± 0.9% in data set [6] and 83.8 ± 1.3% in data set [7]. Further, in data set [7], the “BChE inhibitory activity, fold higher than that of galantamine” value is “ca. 10 fold”. The “BChE type of inhibition” value in data set [7] was “mixed-type”. Besides, the Ki (usually the dissociation constant of the complex between target and ligand, obtained from inhibition or displacement) in data set [7] (competitive component) was determined as 0.89 ± 0.08 µM; in data set [7] (uncompetitive component, listed as N^9 regioisomer), 2.96 µM. In addition, the “BChE Ki′” value in data set [7] (uncompetitive component) is 2.96 ± 0.39 µM. Besides, the IC50 is > 100 µM in data set [1]; > 100 µM in data set [4]; 27.6 µM in data set [2] (Homo sapiens, DU-145); > 100 µM in data set [3] (Homo sapiens, SH-SY5Y); 73.7 µM in the data set on FL83B hepatocytes (Mus musculus, FL83B).
Turning to `CC(=O)OC1C(OCc2ccccc2)C(CNC(=NC(=O)OC(C)(C)C)NC(=O)OC(C)(C)C)OC1n1cnc2ncnc(Cl)c21` [Compound 11, 7-(2-O-acetyl-3-O-benzyl-5-deoxy-5-[N′,N′′-bis(tert-butoxycarbonyl)]guanidino-β-D-xylofuranosyl)-6-chloropurine], the figures for the inhibition at 50 µM in data set [6] and in data set [7] were 34.6 ± 1.4% and 65.2 ± 0.9%, respectively. In addition, the “BChE Ki, fold higher than that of the N^9-counterpart” value in data set [7] was “ca. 2 fold”. In data set [7], the “BChE inhibitory activity, fold higher than that of galantamine” value is ~4 fold. Moreover, in data set [7], the “BChE type of inhibition” value is reported as “mixed-type”. The Ki in data set [7] (competitive component) was determined as 2.34 ± 0.2 µM. In data set [7] (uncompetitive component), the “BChE Ki′” value worked out at 10.6 ± 1.4 µM. The IC50 in data set [1] is 64.1 µM; in data set [4], 43.7 µM; in data set [2] (Homo sapiens, DU-145) it was 24.5 µM; in data set [3] (Homo sapiens, SH-SY5Y), 12.1 µM; with FL83B hepatocytes (Mus musculus, FL83B) it was 24.1 µM. The “cytotoxicity in MCF-7 cells, fold lower than tamoxifen” value in data set [4] came to 1.6 fold. The “effect against DU-145 cells, fold higher than cisplatin” value in data set [2] was determined as 4 fold.
Regarding `CC(=O)O[C@@H]1[C@@H](OCc2ccccc2)[C@@H](CNC(=NC(=O)OC(C)(C)C)NC(=O)OC(C)(C)C)O[C@H]1n1ccc(=O)[nH]c1=O` [Compound 12, 1-(2-O-Acetyl-3-O-benzyl-5-deoxy-5-[N′,N′′-bis(tert-butoxycarbonyl)]guanidino-β-d-xylofuranosyl)uracil], the “cytotoxicity against HCT-15, fold higher (IC50 fold lower) than 5-fluorouracil” value in data set [1] is reported as “ca. 2 fold”. The IC50 in data set [1] was 76 µM; in data set [4], > 100 µM; in data set [2] (Homo sapiens, DU-145) it was > 100 µM; in data set [3] (Homo sapiens, SH-SY5Y) it was > 100 µM; in the data set on FL83B hepatocytes (Mus musculus, FL83B) it was > 100 µM.
Turning to `COc1ccc2c3c1O[C@H]1C[C@@H](O)C=C[C@@]31CCN(C)C2` [Galantamine, reference compound], in data set [7], the “BChE type of inhibition” value is given as “competitive” and the inhibition at 50 µM was 52 ± 0.5%.
